{
  "source": "ChEMBL document CHEMBL1201862",
  "about": "“PubChem BioAssay data set” (2004)",
  "assay_in_all_cases": "NCI anticancer screen, dose series, 48 h",
  "key": {"[1]": {"test_system": "A498"}, "[2]": {"test_system": "SF-268"}, "[3]": {"test_system": "MDA-MB-435"}, "[4]": {"test_system": "NCI-H460"}, "[5]": {"test_system": "SF-539"}, "[6]": {"test_system": "KM12"}, "[7]": {"test_system": "786-0"}, "[8]": {"test_system": "SNB-19"}, "[9]": {"test_system": "SF-295"}, "[10]": {"test_system": "TK-10"}, "[11]": {"test_system": "MDA-N"}, "[12]": {"test_system": "SK-MEL-2"}, "[13]": {"test_system": "CCRF-CEM"}, "[14]": {"test_system": "UO-31"}, "[15]": {"test_system": "CAKI-1"}, "[16]": {"test_system": "U-251"}, "[17]": {"test_system": "UACC-62"}, "[18]": {"test_system": "HT-29"}, "[19]": {"test_system": "OVCAR-8"}, "[20]": {"test_system": "MCF7"}, "[21]": {"test_system": "MDA-MB-231"}, "[22]": {"test_system": "NCI-H23"}, "[23]": {"test_system": "Hs-578T"}, "[24]": {"test_system": "MOLT-4"}, "[25]": {"test_system": "SR"}, "[26]": {"test_system": "ACHN"}, "[27]": {"test_system": "NCI-H522"}, "[28]": {"test_system": "RPMI-8226"}, "[29]": {"test_system": "HCT-116"}, "[30]": {"test_system": "SK-MEL-28"}, "[31]": {"test_system": "Malme-3M"}, "[32]": {"test_system": "LOX IMVI"}, "[33]": {"test_system": "SK-MEL-5"}, "[34]": {"test_system": "UACC-257"}, "[35]": {"test_system": "RXF 393"}, "[36]": {"test_system": "DU-145"}, "[37]": {"test_system": "SW-620"}, "[38]": {"test_system": "HCT-15"}, "[39]": {"test_system": "PC-3"}, "[40]": {"test_system": "NCI/ADR-RES"}, "[41]": {"test_system": "OVCAR-5"}, "[42]": {"test_system": "IGROV-1"}, "[43]": {"test_system": "HOP-62"}, "[44]": {"test_system": "EKVX"}, "[45]": {"test_system": "OVCAR-3"}, "[46]": {"test_system": "OVCAR-4"}, "[47]": {"test_system": "SNB-75"}, "[48]": {"test_system": "COLO 205"}, "[49]": {"test_system": "BT-549"}, "[50]": {"test_system": "SN12C"}, "[51]": {"test_system": "K562"}, "[52]": {"test_system": "HCC 2998"}, "[53]": {"test_system": "M14"}, "[54]": {"test_system": "NCI-H226"}, "[55]": {"test_system": "A549"}, "[56]": {"test_system": "HL-60"}, "[57]": {"test_system": "SK-OV-3"}, "[58]": {"test_system": "T47D"}, "[59]": {"test_system": "HOP-92"}},
  "note": "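A five-concentration, 48-hour dose response in 96-well plates underlies each endpoint, interpolated linearly between surrounding concentrations. GI50 marks 50% less growth.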 The source made the active and inactive calls. Cut-off read from the data, not from the text of the source: active = GI50 up to about 1.1 µM and inactive = higher.",
  "data": [
    {"molecule": "NS(=O)(=O)c1ccc(NC(=O)c2ccc3nc4ccccc4c(Nc4ccc(S(N)(=O)=O)cc4)c3c2)cc1", "values": [
      {"measurement": "GI50", "setting": "[1]", "result": "> 100 µM (inactive)"},
      {"measurement": "GI50", "setting": "[2]", "result": "87.5 µM (inactive)"},
      {"measurement": "GI50", "setting": "[3]", "result": "> 100 µM (inactive)"},
      {"measurement": "GI50", "setting": "[4]", "result": "8.75 µM (inactive)"},
      {"measurement": "GI50", "setting": "[5]", "result": "> 100 µM (inactive)"},
      {"measurement": "GI50", "setting": "[6]", "result": "12.1 µM (inactive)"},
      {"measurement": "GI50", "setting": "[7]", "result": "> 100 µM (inactive)"},
      {"measurement": "GI50", "setting": "[8]", "result": "42.1 µM (inactive)"},
      {"measurement": "GI50", "setting": "[9]", "result": "> 100 µM (inactive)"},
      {"measurement": "GI50", "setting": "[10]", "result": "> 100 µM (inactive)"},
      {"measurement": "GI50", "setting": "[11]", "result": "> 100 µM (inactive)"},
      {"measurement": "GI50", "setting": "[12]", "result": "> 100 µM (inactive)"},
      {"measurement": "GI50", "setting": "[13]", "result": "> 100 µM (inactive)"},
      {"measurement": "GI50", "setting": "[14]", "result": "> 100 µM (inactive)"},
      {"measurement": "GI50", "setting": "[15]", "result": "> 100 µM (inactive)"},
      {"measurement": "GI50", "setting": "[16]", "result": "62.8 µM (inactive)"},
      {"measurement": "GI50", "setting": "[17]", "result": "> 100 µM (inactive)"},
      {"measurement": "GI50", "setting": "[18]", "result": "> 100 µM (inactive)"},
      {"measurement": "GI50", "setting": "[19]", "result": "> 100 µM (inactive)"},
      {"measurement": "GI50", "setting": "[20]", "result": "> 100 µM (inactive)"},
      {"measurement": "GI50", "setting": "[21]", "result": "> 100 µM (inactive)"},
      {"measurement": "GI50", "setting": "[22]", "result": "> 100 µM (inactive)"},
      {"measurement": "GI50", "setting": "[23]", "result": "> 100 µM (inactive)"},
      {"measurement": "GI50", "setting": "[24]", "result": "> 100 µM (inactive)"},
      {"measurement": "GI50", "setting": "[25]", "result": "> 100 µM (inactive)"},
      {"measurement": "GI50", "setting": "[26]", "result": "> 100 µM (inactive)"},
      {"measurement": "GI50", "setting": "[27]", "result": "> 100 µM (inactive)"},
      {"measurement": "GI50", "setting": "[28]", "result": "> 100 µM (inactive)"},
      {"measurement": "GI50", "setting": "[29]", "result": "> 100 µM (inactive)"},
      {"measurement": "GI50", "setting": "[30]", "result": "> 100 µM (inactive)"},
      {"measurement": "GI50", "setting": "[31]", "result": "> 100 µM (inactive)"},
      {"measurement": "GI50", "setting": "[32]", "result": "> 100 µM (inactive)"},
      {"measurement": "GI50", "setting": "[33]", "result": "> 100 µM (inactive)"},
      {"measurement": "GI50", "setting": "[34]", "result": "> 100 µM (inactive)"},
      {"measurement": "GI50", "setting": "[35]", "result": "> 100 µM (inactive)"},
      {"measurement": "GI50", "setting": "[36]", "result": "> 100 µM (inactive)"},
      {"measurement": "GI50", "setting": "[37]", "result": "> 100 µM (inactive)"},
      {"measurement": "GI50", "setting": "[38]", "result": "> 100", "unit": "µM"},
      {"measurement": "GI50", "setting": "[39]", "result": "> 100 µM (inactive)"},
      {"measurement": "GI50", "setting": "[40]", "result": "> 100 µM (inactive)"},
      {"measurement": "GI50", "setting": "[41]", "result": "> 100 µM (inactive)"},
      {"measurement": "GI50", "setting": "[42]", "result": "> 100 µM (inactive)"},
      {"measurement": "GI50", "setting": "[43]", "result": "> 100 µM (inactive)"},
      {"measurement": "GI50", "setting": "[44]", "result": "> 100 µM (inactive)"},
      {"measurement": "GI50", "setting": "[45]", "result": "> 100 µM (inactive)"},
      {"measurement": "GI50", "setting": "[46]", "result": "> 100 µM (inactive)"},
      {"measurement": "GI50", "setting": "[47]", "result": "> 100 µM (inactive)"},
      {"measurement": "GI50", "setting": "[48]", "result": "> 100 µM (inactive)"},
      {"measurement": "GI50", "setting": "[49]", "result": "> 100 µM (inactive)"},
      {"measurement": "GI50", "setting": "[50]", "result": "> 100 µM (inactive)"},
      {"measurement": "GI50", "setting": "[51]", "result": "> 100 µM (inactive)"},
      {"measurement": "GI50", "setting": "[52]", "result": "> 100 µM (inactive)"},
      {"measurement": "GI50", "setting": "[53]", "result": "> 100 µM (inactive)"},
      {"measurement": "GI50", "setting": "[54]", "result": "> 100 µM (inactive)"},
      {"measurement": "GI50", "setting": "[55]", "result": "> 100 µM (inactive)"},
      {"measurement": "GI50", "setting": "[56]", "result": "> 100 µM (inactive)"},
      {"measurement": "GI50", "setting": "[57]", "result": "> 100 µM (inactive)"},
      {"measurement": "GI50", "setting": "[58]", "result": "> 100 µM (inactive)"},
      {"measurement": "GI50", "setting": "[59]", "result": "> 100 µM (inactive)"}
    ]}
  ]
}
